Measured values from US9855341B2, “Formulations and carrier systems including farnesylthiosalycylic moities” (University of Pittsburgh—Of the Commonwealth System of …, priority 2014, dated 2018).

What was measured:
[1] = mouse, in vivo, iv
Description: The blood samples were collected in heparinized tubes at different time points (3 min, 8 min, 15 min, 30 min, 1 h, 2 h, 4 h, 8 h, and 12 h) post-injection. The blood was centrifuged (2,500 rpm, 10 min) and plasma was collected for the analysis. […] Non-compartmental pharmacokinetic analysis was done by WinNonlin. […] At day 1 post-injection, tumor tissues and major organs were collected from the mice. The tissues were weighed and homogenized using Homogenizer PowerGen 500 (Fisher Scientific). […] The solutions were centrifuged (2,500 rpm, 10 min) and the supernatant was used for HPLC measurement.

[2] = Source text: Changes in body weight and mouse survival were monitored daily for two weeks. The MTD was defined as the maximal dose that causes neither greater than 15% of body weight loss nor mouse mortality within two weeks after administration. See Lu, J.; Huang, Y.; Zhao, W.; Marquez, R. T.; Meng, X.; Li, J.; Gao, X.; Venkataramanan, R.; Wang, Z.; Li, S., PEG-derivatized embelin as a nanomicellar carrier for delivery of paclitaxel to breast and prostate cancers. Biomaterials, 34, 1591-600 (2013).
[3] = system: HCT-116 human colon carcinoma cell line; assay: In vitro cytotoxicity, HCT-116; format: cell-based; conditions: HCT-116 cells
Source text: Several cancer cell lines were included in the cytotoxicity studies including murine breast cancer cells 4T1.2, human colon carcinoma cell line HCT-116, and two human prostate cancer cell lines PC-3 and DU145. […] A similar result was obtained in human colon cancer cells, HCT-116 as illustrated in FIG. 3B. […] Without limitation to any mechanism, it is likely that FTS is much more readily released from PEG5KFTS2(L) by esterases following intracellular delivery.
Incorporation of an additional disulfide linkage into PEG5K-FTS2(L) led to further improvement in cytotoxicity. […] Without limitation to any mechanism, this observation may, for example, be a result of enhanced intracellular delivery of FTS via PEG5K-S—S-FTS2(L).
The cytotoxicity of drug-free PEG5K-Fmoc-FTS2 and PEG5K-FTS2 micelles was examined in 4T1.2 and HCT-116 tumor cells and compared to free FTS (see FIGS. 12A and 12B, respectively). […] Without limitation to any mechanism, it is likely that the cytotoxicity of PEG-FTS comes from the released FTS following intracellular delivery.
FIGS. 13A-C show the cytotoxicity of TAXOL and PTX formulated in PEG5K-Fmoc-FTS2 micelles in several cancer cell lines.
See Zhang, X.; et al., PEG-farnesylthiosalicylate conjugate as a nanomicellar carrier for delivery of paclitaxel. Bioconjug. Chem., 24, 464-72 (2013). The cytotoxicity of free PEG5K-FTS2, PEG5K-Fmoc-FTS2 and FTS was also examined.

[4] = system: 4T1.2 mouse breast cancer cell line; assay: In vitro cytotoxicity, 4T1.2; format: cell-based; conditions: 4T1.2 cells
[5] = system: PC-3 human prostate cancer cell line; assay: In vitro cytotoxicity, PC-3; format: cell-based; conditions: PC-3 cells
Source text: FIG. 9B illustrates cytotoxicity of FTS and FTS-amide in a PC-3 human prostate cancer cell line.
As described above, FTS and derivatives thereof can be used in the carrier agents hereof. In a number of embodiments (for example, for drug delivery), biologically active derivatives of FTS are used. […] Similar results were obtained in our in vitro cytotoxicity study with HCT-116 and PC-3 cancer cell lines (see FIGS. 9A and 9B).

[6] = system: human prostate cancer xenograft model (PC-3); assay: NIRF optical imaging biodistribution; conditions: PC-3 xenograft, i.v.
Description: Biodistribution and tumor-targeting efficiency of PEG5K-Fmoc-FTS2 micelles were tested in a human prostate cancer xenograft model (PC-3). DiD, a hydrophobic near infrared fluorescence (NIRF) dye with high penetration, low tissue absorption and scattering was loaded into the PEG5K-Fmoc-FTS2 micelles for tissue imaging. […] After last imaging at 96 h post-injection, tumors and major organs were excised for ex vivo imaging.
At indicated times (0.5 h, 6 h, 24 h, 48 h, 72 h and 96 h), the mice were scanned using a Carestream Molecular Imaging System, In vivo Multispectral FX PRO, with the excitation at 630 nm and the emission at 700 nm using a 30 s exposure time. The mice were anesthetized by isoflurane inhalation before each imaging. After 96 h, the mice were euthanized by CO2 overdose. The tumor and major organs were excised for ex vivo imaging.

Structure (SMILES): COc1cccc2c1C(=O)c1c(O)c3c(c(O)c1C2=O)C[C@@](O)(C(=O)CO)C[C@@H]3O[C@H]1C[C@H](N)[C@H](O)[C@H](C)O1 [DOX, doxorubicin]
- Vd [1]: 7.34 L/kg
- decrease in the body weight ([2]; 15 mg DOX/kg): > 15%
- mortality ([2]; 15 mg DOX/kg): death of all treated mice
- tolerability ([2]; dose of 10 mg/kg (DOX)): well tolerated

Structure (SMILES): CC(C)=CCC/C(C)=C/CC/C(C)=C/CSc1ccccc1C(=O)O [FTS, S-trans, trans-farnesylthiosalicylic acid]
- cytotoxicity (tumor cell growth inhibition) [3]: inhibited the tumor cell growth in a concentration-dependent manner
- cytotoxicity (tumor cell growth inhibition) [4]: inhibited the tumor cell growth in a concentration-dependent manner

Structure (SMILES): CC(C)=CCC/C(C)=C/CC/C(C)=C/CSc1ccccc1C(N)=O [FTS-amide, S-trans, trans-farnesylthiosalicylic acid amide]
- cytotoxicity (tumor cell growth inhibition) [3]: more effective than the parent compound in inhibiting the tumor cell growth
- cytotoxicity (tumor cell growth inhibition) [5]: more effective than the parent compound in inhibiting the tumor cell growth

Structure (SMILES): CCCCCCCCCCCCCCCCCCN1C(=CC=CC=CC2=[N+](CCCCCCCCCCCCCCCCCC)c3ccccc3C2(C)C)C(C)(C)c2ccccc21.[O-][Cl+3]([O-])([O-])[O-] [free DiD, 1,1′-dioctadecyl-3,3,3′,3′-tetramethylindodicarbocyanine perchlorate]
- tumor accumulation (NIRF imaging) [6]: No obvious tumor accumulation
